Columns and labels:
[1] = system: Swiss-Webster male mice; assay: Mouse Activity and Screen Test Procedure (MAST): locomotor activity in actophotometer; format: in vivo; settings: one hour prior to testing
Experimental: Nine unfasted Swiss-Webster male mice weighing 20-30 g equally divided into three groups for each drug dose to be tested. That is, data for each dose level was generated by three separated groups of three mice each. A minimum of three dose levels (10, 30, and 100 mg/kg) are tested for each drug. Treatments are administered intraperitoneally one hour prior to testing. All dosages are calculated as parent compound and given in volumes of 10 ml/kg. […] Control animals are injected with Methocel. […] The actophotometer consists of a cylindrical chamber whose center is occupied by another cylinder which contains the illumination for six photocells located on the perimeter of the chamber. Six light-beam interruptions equal one count. […] Data: The data obtained from the screen test are expressed as percent of mice falling off the screen. Data derived from locomotor activity of drug treated mice are compared to the activity of vehicle treated animals and are expressed as percent inhibition of spontaneous locomotion. All percentages reported for inhibition of locomotion (LI) are based upon data accumulated for one hour. […] An overall dose rating is obtained by the following criteria: LAD refers to the lowest dose at which an A rating is achieved. […] The compounds are identified in the Examples.

[2] = target: T1, adenosine A1 receptor (Rattus norvegicus, UniProt P25099); assay: Adenosine Receptor Binding - A1 Receptor Affinity (RBA1); settings: [3H]-CHA, rat whole brain membranes; read-out: RBA-1
T1 construct: Whole brain minus cerebellum and brainstem from male Long Evans rats (150-200 g) was homogenized; from tissue; host or cells: rat whole brain minus cerebellum and brainstem, membrane homogenate
T1 sequence (P25099 1-326): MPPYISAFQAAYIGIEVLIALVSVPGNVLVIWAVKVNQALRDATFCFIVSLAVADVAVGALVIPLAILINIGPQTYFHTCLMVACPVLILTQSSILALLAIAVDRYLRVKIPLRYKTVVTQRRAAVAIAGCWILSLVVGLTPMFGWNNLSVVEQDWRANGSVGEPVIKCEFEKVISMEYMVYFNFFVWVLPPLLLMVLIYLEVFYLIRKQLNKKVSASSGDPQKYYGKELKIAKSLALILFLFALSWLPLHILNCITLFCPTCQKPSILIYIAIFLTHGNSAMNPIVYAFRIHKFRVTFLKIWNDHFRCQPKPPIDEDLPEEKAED
Experimental: Adenosine Receptor Binding - A1 Receptor Affinity (RBA1)
Whole brain minus cerebellum and brainstem from male Long Evans rats (150-200 g) was homogenized in 30 volumes of ice-cold 0.05 M Tris-HCI buffer pH 7.7 using a Brinkman Polytron PT-10 (setting number 6 for 20 seconds) and centrifuged for ten minutes at 20,000 x g (Sorvall RC-2), 4°C. The supernatant was discarded, and the pellet was resuspended and centrifuged as before. The pellet was resuspended in 20 ml Tris-HCI buffer containing two International Units/ml of adenosine deaminase (Sigma type III from calf intestinal mucosa), incubated at 37°C for 30 minutes, then subsequently at 0°C for ten minutes. The homogenate was again centrifuged, and the final pellet was resuspended in ice-cold 0.05 M Tris-HCI buffer pH 7.7 to a concentration of 20 mg/ml original wet tissue weight and used immediately.
Tissue homogenate (10 mg/ml) was incubated in 0.05 M Tris-HCI buffer pH 7.7 containing 1.0 nM [^3H]-N^6-cyclohexyladenosine (^3H]-CHA) with or without test agents in triplicate for one hour at 25°C. Incubation volume was 2 ml. Unbound [^3H]-CHA was separated by rapid filtration under reduced pressure through Whatman glass fiber (GF/B) filters. The filters were rinsed three times with 5 ml of ice cold 0.05 M Tris-HCI buffer pH 7.7. The radio-labeled ligand retained on the filter was measured by liquid scintillation spectrophotometry after shaking the filters for one hour or longer on a mechanical shaker in 10 ml of Beckman Ready Solv HP scintillation cocktail.
Nonspecific binding was defined as the binding which occurred in the presence of 1 mM thophylline. […] The Scatchard plot was calculated by linear regression of the line obtained by plotting the amount of radioligand bound (pmoles/gram of tissue) versus [formula] Since the amount of radioligand bound was a small fraction of the total amount added, free radioligand was defined as the concentration (nM) of radioligand added to the incubation mixture. The Hill coefficient was calculated by linear regression of the line obtained by plotting the log of the bound radioligand vs the log of the [formula] The maximal number of binding sites (Bmax) was calculated from the Scatchard plot.

[3] = system: Swiss-Webster male mice; assay: Mouse Activity and Screen Test Procedure (MAST): screen test (ST); format: in vivo; settings: one hour postinjection
From the text: The compounds of the invention are new chemical substances which are useful as pharmaceutical agents for the treatment of psychoses. The antipsychotic activity of representative compounds of the invention was established by the Mouse Activity and Screen Test Procedrue (MAST) described below.
Nine unfasted Swiss-Webster male mice weighing 20-30 g equally divided into three groups for each drug dose to be tested. That is, data for each dose level was generated by three separated groups of three mice each.
A minimum of three dose levels (10, 30, and 100 mg/kg) are tested for each drug. Treatments are administered intraperitoneally one hour prior to testing. All dosages are calculated as parent compound and given in volumes of 10 ml/kg. Compounds are dissolved or suspended in 0.2% Methocel. Control animals are injected with Methocel.
Testing: A two part testing procedure is started one hour postinjection. First, the screen test (ST) is performed (see Pharmac. Biochem. Behav. 6, 351-353, 1977). Briefly this test consists of placing mice on individual wire screens which are then rotated 180 degrees at the start of a 60 second observation period. The number of mice falling off the inverted screen is recorded.
Data: The data obtained from the screen test are expressed as percent of mice falling off the screen. Data derived from locomotor activity of drug treated mice are compared to the activity of vehicle treated animals and are expressed as percent inhibition of spontaneous locomotion. All percentages reported for inhibition of locomotion (LI) are based upon data accumulated for one hour. Both phases of testing are graded: A=60-100%; G=31-59%; and N=0-30%. An overall dose rating is obtained by the following criteria:
LAD refers to the lowest dose at which an A rating is achieved. […] Utilizing this procedure, an overall dose rating of A was obtained for the noted compound at the indicated dose. The compounds are identified in the Examples.

[4] = target: T2, adenosine A2 receptor (Rattus norvegicus, UniProt P30543); assay: Adenosine Receptor Binding - A2 Receptor Affinity (RBA2); settings: [3H]NECA, rat striatal membranes; read-out: RBA-2
T2 construct: 5 mg original tissue weight of rat weight of rat striatal membranes; tissue Pel-Freez (Rogers, Arkansas); host or cells: rat striatum, membrane preparation
T2 sequence (P30543 whole entry): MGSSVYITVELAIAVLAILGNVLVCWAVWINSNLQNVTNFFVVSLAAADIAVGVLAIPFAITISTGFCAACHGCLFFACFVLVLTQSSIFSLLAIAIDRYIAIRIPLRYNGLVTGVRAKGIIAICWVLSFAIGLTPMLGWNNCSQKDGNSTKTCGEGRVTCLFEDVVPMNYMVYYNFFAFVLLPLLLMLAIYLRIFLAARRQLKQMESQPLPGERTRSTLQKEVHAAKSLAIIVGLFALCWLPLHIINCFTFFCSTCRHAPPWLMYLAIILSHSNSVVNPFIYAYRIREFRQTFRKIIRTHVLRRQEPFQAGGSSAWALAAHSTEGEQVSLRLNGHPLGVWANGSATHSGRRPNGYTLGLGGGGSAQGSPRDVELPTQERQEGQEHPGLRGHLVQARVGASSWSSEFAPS
Experimental: Adenosine Receptor Binding - A2 Receptor Affinity (RBA2)
Brains from 200-500 g mixed sex Sprague-Dawley rats were purchased from Pel-Freez (Rogers, Arkansas). […] Brains were thawed and then kept on ice while the striata were dissected out. […] When needed, tissue was thawed at room temperature, disrupted in a Polytron, and kept on ice until used.
All incubations were for 60 minutes at 25°C in 12x75 mm glass tubes containing 1 ml Tris with 5 mg original tissue weight of rat weight of rat striatal membranes, 4 nM [^3H]-N-ethyl adenosine-5'-carboxamide ([^3H]NECA), 50 nM N^6-cyclopentyladenosine (to eliminate A1 receptor binding), 10 mM MgCl2, 0.1 units/ml of adenosine deaminase and 1% dimethylsulfoxide. N^6-Cyclopentyladenosine was dissolved at 10 mM in 0.02 N HCI and diluted in Tris. […] Test compounds were dissolved at 10 mM in dimethylsulfoxide on the same day as the experiment, and diluted in dimethylsulfoxide to 100x the final incubation concentration. […] [^3H]NECA was diluted to 40 nM in Tris. The membrane suspension (5 mg/0.79 ml) contained sufficient MgC12 and adenosine deaminase to give 10 mM and 0.1 units/ml, respectively, final concentration in the incubation. For test compounds with lC50 values less than 1 µM, the order of additions was test compound (10 µl), N^6-cyclopentyladenosine (100 µl), [^3H]NECA (100 µl), and membranes (0.79 ml). […] After all additions, the rack of tubes was vortexed, and the tubes were then incubated for 60 min at 25°C in a shaking water bath. The rack of tubes was vortexed an additional time halfway through the incubation.
incubations were terminated by filtration through 2.4 cm GF/B filters under reduced pressure. Each tube was filtered as follows: the contents of the tube were poured onto the filter, 4 ml of ice-cold Tris were added to the tube and the contents poured onto the filter, and the filter was washed twice with 4 ml of ice-cold Tris. The filtration was complete in about twelve seconds.
Nonspecific binding was defined as binding in the presence of 100 µM N^6-cyclopentyladenosine, and specific binding was defined as total binding minus nonspecific binding. The IC50 was calculated by weighed nonlinear least squares curve-fitting to the mass-action equation. [formula] • where Y is cpm bound • T is cpm total binding without drug • S is cpm specific binding without drug • D is the concentration of drug • and K is the IC50 of the drug Weighting factors were calculated under the assumption that the standard deviation was proportional to the predicted value of Y. Nonspecific binding was treated as a very large (infinite) concentration of drug in the computer analysis.

Structure (SMILES)	IC50 [2] [µM]	Screen test failure ([3]; 3 mg/kg intraperitoneally) [%]	Screen test failure ([3]; 10 mg/kg intraperitoneally) [%]	Screen test failure ([3]; 30 mg/kg intraperitoneally) [%]	IC50 [4] [µM]	Screen test failure ([3]; 1 mg/kg intraperitoneally) [%]	Inhibition of mouse locomotor activity ([1]; 3 mg/kg intraperitoneally) [%]	Inhibition of mouse locomotor activity ([1]; 10 mg/kg intraperitoneally) [%]	Inhibition of mouse locomotor activity ([1]; 30 mg/kg intraperitoneally) [%]	Inhibition of mouse locomotor activity ([1]; 1 mg/kg intraperitoneally) [%]
CC1(C)O[C@@H]2[C@H](O1)[C@@H](CO)O[C@H]2n1cnc2c(NC3CCCc4ccccc43)ncnc21 (stereo partly drawn) [Example 12, N^6-(1-tetralinyl)-2',3'-O-isopropylidene-adenosine]	22.4	0	0	0	–	–	3	−1	−16	–
O[C@@H]1[C@H](O)[C@@H](COCc2ccccc2)O[C@H]1n1cnc2c(NC3CCCc4ccccc43)ncnc21 (stereo partly drawn) [Example 20, N^6-tetralinyl-5'-benzylether-adenosine]	5.84	–	–	–	46.7	–	–	–	–	–
CCOC(=O)OC[C@H]1O[C@@H](n2cnc3c(NC4CCCc5ccccc54)ncnc32)[C@H](OC(=O)OCC)[C@@H]1OC(=O)OCC (stereo partly drawn) [Example 19, N^6-1-tetralinyl-2',3',5'-triethylcarbonate-adenosine]	–	0	0	11	–	11	57	91	95	42

More lines, main results first:

IC50 [2] [µM]	Screen test failure ([3]; 3 mg/kg intraperitoneally) [%]	Screen test failure ([3]; 10 mg/kg intraperitoneally) [%]	Screen test failure ([3]; 30 mg/kg intraperitoneally) [%]	IC50 [4] [µM]	Screen test failure ([3]; 1 mg/kg intraperitoneally) [%]	Structure (SMILES)	Inhibition of mouse locomotor activity ([1]; 3 mg/kg intraperitoneally) [%]	Inhibition of mouse locomotor activity ([1]; 10 mg/kg intraperitoneally) [%]	Inhibition of mouse locomotor activity ([1]; 30 mg/kg intraperitoneally) [%]	Inhibition of mouse locomotor activity ([1]; 1 mg/kg intraperitoneally) [%]
0.444	–	–	–	2.61	–	COc1cccc2c1CCC[C@H]2Nc1ncnc2c1ncn2[C@@H]1O[C@H](CO)[C@@H](O)[C@H]1O [Example 11, (R)-N^6-[5-methoxy-1-aminotetralin]-adenosine]	–	–	–	–
1.06	–	–	–	7.92	–	O=C(OC[C@H]1O[C@@H](n2cnc3c(NC4CCCc5ccccc54)ncnc32)[C@H](O)[C@@H]1O)c1ccccc1 (stereo partly drawn) [Example 13, N^6-(1-tetralinyl)-5'-benzoyladenosine]	–	–	–	–

— EP0179667B1, “N6-substituted adenosines” (priority 1984, dated 1986)
